{
  "source": "patent US12377092B2",
  "about": "“Polycomb inhibitors and uses thereof” (FONDAZIONE ISTITUTO FIRC DI ONCOLOGIA MOLECOLARE (IFOM), priority 2017, dated 2025)",
  "type_in_all_cases": "cell-based, mouse",
  "key": {"[1]": {"test_system": "EndMT markers (Klf4, Sca1 and Fsp1)", "test": "Western blot analysis of EndMT markers, wild type and CCM3 knock out immortalized lung endothelial cells", "settings": "72 hours", "method": "(§1) Cells were seeded 6.3×10^4 cells/cm^2. The day after, PTC209 and UNC1999 were added to the confluent cells. Drugs were left for one or three days depending on the aim of the experiment. Final concentrations used for the two drugs were: 1 uM PTC209 and 5 uM UNC1999.\n(§2) Confluent cells were lysed with boiling modified Laemi sample Buffer (2% SDS, 20% glycerol, and 125 mM Tris-HCl, pH 6.8). Lysates were incubated for 10 minutes at 100° C. to allow proteins denaturation. Protein concentration was estimated using the BCA Protein Assay Kit (Pierce). Equal amount of proteins was loaded on a gel, separated by SDS-PAGE and transferred to a Protran Nitrocellulose Membrane (Whatman) 0.2 um pores. The membranes were blocked for 1 hour at RT in Tris Buffered Saline (TBS: NaCl 150 mM, Tris-HCl 10 mM pH 7.4) plus 0.1% Tween-20 containing 5% BSA or milk. The membranes were incubated with primary antibodies diluted in TBST (TBS plus 0.1% Tween-20) containing 5% of either BSA or milk overnight at 4° C. Next, membranes were rinsed three times with TBST for 5 minutes each and incubated for 45 minutes at RT with HRP-linked secondary antibodies diluted in TBST containing 5% BSA/milk. Membranes were rinsed three times with TBST for 5 minutes each and specific bindings were detected by enhanced chemiluminescence (ECL) system (Amersham Bioscience) using ChemiDoc XRS gel imaging system (Bio-Rad).\n(§3) Wild type and CCM3 knock out cells were treated with either PTC209 or DMSO starting from the day after seeding, when cells were confluent. For this experiment cells were lysed for western blot and real-time analysis after 72 hours of treatment to check a long-term effect of PTC209.\n(§4) To perform these experiments, immortalized lung endothelial cells both wild type and CCM3 knock out were treated, with the same experimental strategy used for PTC209, with UNC1999 for 72 hours and subsequently lysed for western blot and real time analysis. UNC1999 was used in its specific optimal concentration, which was different to PTC209. As control DMSO was given to the cells in a volume equal to the volume of DMSO in which UNC1999 was previously dissolved to rich the optimal concentration.\n(§5) Briefly, wild type and CCM3 knock out cells were treated with either PTC209, UNC1999 or a combination of the two. PTC209 and UNC1999 were administrated at the same concentration used for the single treatment and DMSO was given as control in a volume equal to the sum of volumes of DMSO in which UNC1999 and PTC209 were previously dissolved."}, "[2]": {"test_system": "EndMT markers (Klf4, Sca1 and Fsp1)", "test": "Real time (RT-PCR) analysis of EndMT markers, wild type and CCM3 knock out immortalized lung endothelial cells", "settings": "72 hours", "method": "as §1\n(§6) RNA extraction was performed both with (A) RNeasy kits (Promega) or (B) RNAeasy Mini Kit (QIAGEN). The latter allows also the extraction of proteins from the same sample. The RNA (500 ng) was reverse transcribed with random hexamers (High Capacity cDNA Archive kits; Applied Biosystems) in a final volume of 30 uL. Reaction were made with a thermocycler (Eppendorf) 10 min at 25° C. followed by 2 hours at 37° C. cDNA (5 ng) was amplified in triplicate in a reaction volume of 15 uL using TaqMan Gene Expression Assays (Applied Biosystems) in a ABI/Prism 7900 HT using a pre PCR step of 10 min at 95° C., followed by 40 cycles of 15 seconds at 95° C. and 60 seconds at 60° C. For each sample, the expression level was determined with the comparative threshold cycle (Ct) method, and normalized to the housekeeping genes encoding 18S, glyceraldehyde-3-phosphate dehydrogenase (GAPDH) and hypoxanthine-guanine phosphoribosyltransferase (hprt1). Ct or threshold cycle, represents the PCR cycle at which an increase in reporter fluorescence above a base-line signal can first be detect.\nas §3, §4, §5"}, "[3]": {"test_system": "CCM3 knock out cells", "method": "as §1\nFor immunofluorescence, cells were fixed in three different ways: with 4% PAF in PBS (followed by permeabilization with 0.5% Triton X-100 for 5 minutes); with 1% PAF in triethanolamine pH 7.5, containing 0.1% Triton X-100 and 0.1% NP-40 for 10 minutes at RT or in methanol for 5 minutes at […]. Blocking (1 hour, RT) were performed in PBS containing 2% BSA and 5% donkey serum. Primary (overnight, 4° C.) and secondary (50 minutes, RT) antibodies were incubated in PBS with 2% BSA.\nTo check the effect of Bmi1 on junctional organisation, both wild type and CCM3 knock out cells were treated with PTC209 with the same experimental conditions described before and subsequently analysed by immunofluorescence. In particular cells were stained for VE-cadherin and PECAM1 (FIG. 7).\nExperiment with combined PTC209 and UNC1999 treatments was repeated with the same experimental conditions described before and junction organisation was analysed through VE-cadherin staining and protein expression analysis (FIG. 19)."}, "[4]": {"test_system": "EndMT markers (Klf4, Sca1 and Fsp1)", "settings": "72 hours", "method": "as §1, §2"}, "[5]": {"test_system": "EndMT markers (Klf4, Sca1 and Fsp1)", "settings": "72 hours", "method": "as §1, §6", "remark": "listed apart in the source"}, "[6]": {"test_system": "CCM1 knock out cells", "test": "Immunofluorescence of junction organisation (VE-cadherin, PECAM1), wild type and CCM1 knock out cells", "description": "Also for CCM1 model, the inventors tested the effect of Bmi1 inhibition on junction organisation. The inventors repeated PTC209-treatment on CCM1 model with the same experimental conditions described before, and the inventors analysed VE-cadherin and PECAM1 expression by immunofluorescence analysis (FIG. 12) in parallel with real time analysis (FIG. 13)."}, "[7]": {"test_system": "VE-cadherin and PECAM1", "test": "Real time analysis of VE-cadherin and Pecam1 transcripts, CCM1 knock out cells", "settings": "PTC209", "method": "as §6\nAlso for CCM1 model, the inventors tested the effect of Bmi1 inhibition on junction organisation. […]"}, "[8]": {"test_system": "EndMT markers (Klf4, Sca1 and Fsp1)", "test": "RT-PCR of EndMT markers in wild type cells infected with lentivirus expressing LefΔN-β-catΔC", "settings": "wild type cells infected with 40 ul LefΔN-β-catΔC lentivirus; PTC209 72 hours from nine days after infection", "method": "as §6\nOne day before infection, 300.000 cells/well were seeded in a 6-wells plate in complete medium as described before.\nThe day after 40 uL per well of the concentrated virus was added to the cells medium and leaved overnight at 37° C. […]"}, "[9]": {"settings": "CCM3 knock out cells, 1 uM PTC209, 5 uM UNC1999, vs DMSO"}, "[10]": {"settings": "wild type cells (physiological condition), CCM3 model"}, "[11]": {"settings": "wild type cells (physiological condition), CCM1 model"}},
  "note": "“Also recorded” adds a separate entry of the source. Where two headings read alike, the source gives them in different places.",
  "data": [
    {"smiles": "COc1cc(Br)c(Nc2nc(-c3c(C)nc4ncccn34)cs2)c(Br)c1", "note": "[PTC209, N-(2,6-dibromo-4-methoxyphenyl)-4-(2-methylimidazo[1,2-a]pyrimidin-3-yl)thiazol-2-amine]", "values": [
      {"measurement": "Klf4 protein up-regulation induced by CCM3 deletion (western blot)", "setting": "[1]; CCM3 knock out cells", "result": "completely rescued"},
      {"measurement": "levels of Klf4 and Sca1 protein in treated CCM3 knock out cells versus wild type cells", "setting": "[1]; CCM3 knock out cells, 1 uM PTC209", "result": "comparable with the levels expressed by wild type cells"},
      {"measurement": "EndMT markers (Klf4, Sca1, Fsp1) protein expression (western blot)", "setting": "[1]; [9]", "result": "strongly downregulated; also recorded: inhibition of the upregulation"},
      {"measurement": "Klf4 protein (western blot)", "setting": "[1]; [10]", "result": "not affected"},
      {"measurement": "Klf4 transcript up-regulation induced by CCM3 deletion (real time analysis)", "setting": "[2]; CCM3 knock out cells", "result": "completely rescued"},
      {"measurement": "Klf4, Sca1 and Fsp1 transcripts (real time analysis)", "setting": "[2]; [9]", "result": "downregulated"},
      {"measurement": "Klf4 transcript (real time analysis)", "setting": "[2]; [10]", "result": "not affected"},
      {"measurement": "junctional organisation (VE-cadherin, PECAM1 immunostaining)", "setting": "[3]; CCM3 knock out cells", "result": "did not rescue junctional disorganisation"},
      {"measurement": "junctional organisation (VE-cadherin, PECAM1 immunostaining)", "setting": "[3]; wild type cells, CCM3 model", "result": "did not disturb junction organisation"},
      {"measurement": "EndMT markers (Klf4, Sca1, Fsp1) protein levels (western blot)", "setting": "[4]; CCM1 knock out cells, vs DMSO", "result": "strong inhibition"},
      {"measurement": "Klf4 protein (western blot)", "setting": "[4]; [11]", "result": "not downregulated"},
      {"measurement": "Klf4 transcript (real time analysis)", "setting": "[5]; CCM1 knock out cells", "result": "downregulated"},
      {"measurement": "Sca1 and Fsp1 transcripts (real time analysis)", "setting": "[5]; CCM1 knock out cells", "result": "downregulated"},
      {"measurement": "EndMT markers (Klf4, Sca1, Fsp1) transcript levels (real time analysis)", "setting": "[5]; CCM1 knock out cells, vs DMSO", "result": "strong inhibition"},
      {"measurement": "Klf4 transcript (real time analysis)", "setting": "[5]; [11]", "result": "not downregulated"},
      {"measurement": "junction organisation (VE-cadherin, PECAM1 immunostaining)", "setting": "[6]; CCM1 knock out cells", "result": "visible reorganisation of junctions"},
      {"measurement": "junction organisation (VE-cadherin, PECAM1 immunostaining)", "setting": "[6]; wild type cells, CCM1 model", "result": "remained unchanged"},
      {"measurement": "VE-cadherin and PECAM1 transcript levels (gene expression analysis)", "setting": "[7]", "result": "did not show any rescue"},
      {"measurement": "Sca1 and Fsp1 upregulation (RT-PCR)", "setting": "[8]", "result": "strongly reduced"}
    ]}
  ]
}
